We go through 2 substances from patent US9096650B2, “Cyclic oligopeptides for binding to a target ligand” (LEXCICON LIMITED, priority 2006, dated 2015).

One experiment concerns TNF secretion. Particulars: in words; literature reference; cited from earlier work.
In experiment [1] the test system is J774A.1 cells (a macrophage cell line). The experiment is described as follows: Dose response: suppression of TNF secretion stimulated by lipopolysaccharide (LPS) in a macrophage cell line (Example 1). It is filed as cell-based. Particulars: LPS 0.625 ug/ml. How it is done: • 1. A cyclic octapeptide with the structure: cyclo(-DF-S-Σ-R-DF-S-Σ-R-) • was synthesised using standard methods based on the Merrifield resin-based technique, followed by solution-phase cyclisation. The purified peptide was prepared as a solution in distilled water at a concentration of 1 mg/ml. • R, F and S represent the epitope-forming amino acids and Σ represents the associating functional group borne on the associating amino acid wherein the associating amino acid is an L-alpha aminocarboxylic acid and the associating functional group is a side-chain residue consisting of a straight aliphatic chain containing ten carbon atoms. • All amino acids are in the L form unless indicated otherwise. • All amino acids are linked by peptide bonds. • 2. J774A.1 cells (a macrophage cell line) were plated out in all the wells of a 24-well cluster plates at a seeding density of 5×10^5 cells/ml/well (1 ml RPMI 1640 culture medium per well), and incubated overnight at 37° C. in 5% CO2/air. • 3. The following day, the solution from step 1 was administered to fifteen wells containing cells in step 2, to give three wells each with a final concentration of 50, 25, 12.5, 6.25 or 3.125 ug/ml. The remaining wells were left untreated. The plate was incubated for a further four hours at 37 degC. • 4. Lipopolysaccharide (from E. coli strain 0111 B4) was added to the wells receiving the octapeptide solution, as well as three of the wells receiving no peptide. The final concentration of lipopolysaccharide was 0.625 ug/ml. • 5. The plate was incubated overnight, and the following day the supernatants were assayed for TNF using a commercial ELISA kit.

The test system is the same in experiment [2]. Put plainly: Suppression of LPS-stimulated TNF secretion by peptide formulated with hydroxypropyl beta-cyclodextrin (Example 4). In kind it is cell-based. How it is done: • 1. A cyclic octapeptide with the structure cyclo(-DF-S-Σ-R-DF-S-Σ-R-) was prepared as a solution in transcutol at a concentration of 5 mg/ml, where Σ represents the associating amino acid as an L-alpha aminocarboxylic acid and the associating functional group borne on the associating amino acid as a side-chain residue consisting of a straight aliphatic chain containing ten carbon atoms. • 2. Six separate aliquots of 200 ul of the solution in step 1 were transferred to fresh 8 ml vials and mixed with slow vortexing with 800 ul of a solution of hydroxy-propyl beta cyclodextrin at a concentration 50, 25, 12.5, 6.25, 3.125 or 1.5625 mg/ml in distilled water • 2. J774A.1 cells (a macrophage cell line) were plated out in all the wells of a 24-well cluster plates at a seeding density of 5×10^5 cells/ml/well (1 ml RPMI 1640 culture medium per well), and incubated overnight at 37° C. in 5% CO2/air. • 3. The following day, each of the solutions from step 1 were administered in appropriate volumes to wells containing cells in step 2, to give three wells each with a final concentration of 8, 4, or 2 ug/ml. The remaining wells were left untreated. The plate was incubated for a further four hours at 37 degC. • 4. Lipopolysaccharide (from E. coli strain 0111 B4) was added to the wells receiving the octapeptide solution, as well as three of the wells receiving no peptide. The final concentration of lipopolysaccharide was 0.625 ug/ml. • 5. The plate was incubated overnight, and the following day the supernatants were assayed for TNF using a commercial ELISA kit.

For experiment [3], the system named is J774-1 cells (a macrophage cell line). The experiment is described as follows: Suppression of TNF secretion stimulated by LPS in a macrophage cell line, varying epitope order and stereochemistry of associating amino acids (Example 3). As to conditions: peptide 50 ug/ml; LPS 1.25 ug/ml; LPS alone 1861.9. It is filed as cell-based. The method, then: • 1. Cyclic octapeptides were prepared with the following structures: cyclo(-DF-S-ΣL-R-DF-S-ΣL-R-) cyclo(-DF-S-ΣL-R-DF-S-ΣD-R-) cyclo(-DF-S-ΣD-R-DF-S-ΣD-R-) cyclo(-DF-R-ΣL-S-DF-R-ΣL-S-) cyclo(-DF-R-ΣL-S-DF-R-ΣD-S-) cyclo(-DF-R-ΣD-S-DF-R-ΣD-S-) wherein F, S and R are the epitope-forming amino acids, ΣL represents an associating amino acid which is an L-alpha aminocarboxylic acid in which the associating functional group is a side-chain residue consisting of an unbranched —C10H21; ΣD represents an associating amino acid which is a D-alpha aminocarboxylic acid in which the associating functional group is a side-chain residue consisting an unbranched —C10H21. These cyclic oligopeptides were prepared as solutions in distilled water at a concentration of 1 mg/ml. • 2. J774-1 cells (a macrophage cell line) were plated out in all the wells of a 24-well cluster plates at a seeding density of 3×10^5 cells/ml/well (1 ml RPMI 1640 culture medium per well), and incubated overnight at 37° C. in 5% CO2/air. • 3. The following day, the solutions from step 1 were administered to eighteen wells containing cells in step 2, to give three wells each with a final concentration of 50 ug/ml. The remaining wells were left untreated. The plate was incubated for a further four hours at 37 degC. • 4. Lipopolysaccharide (from E. coli strain 0111 B4) was added to the wells receiving the octapeptide solutions, as well as three of the wells receiving no peptide. The concentration of lipopolysaccharide was 1.25 ug/ml. • 5. The plate was incubated overnight, and the following day the supernatants were assayed for TNF using a commercial ELISA kit.

A further experiment concerns TNF. The experiment is described as follows: Suppression of TNF secretion stimulated by LPS in rats (Example 5). It is filed as in vivo. How it is done:
• 1. A cyclic octapeptide with the structure cyclo(-DF-S-Σ-R-DF-S-ΣR-), where Σ represents the associating amino acid as an L-alpha aminocarboxylic acid and the associating functional group borne on the associating amino acid as a side-chain residue consisting of a straight aliphatic chain containing ten carbon atoms, was prepared as a solution in transcutol and hydroxypropyl beta-cyclodextrin as described in example 4, where the concentration of peptide was 1 mg/ml, and the final concentration of cyclodextrin was 40 mg/ml. • 2. Rats weighing 250 g were injected i.p. with 1 ml of peptide solution (1 mg peptide per rat). A second group of rats received 1 ml of the transcutol/cyclodextrin vehicle containing no peptide. One hour later, the rats were further injected with 1 mg of lipopolysaccharide (from Salmonella abortus equi). • 3. 150 minutes later, blood samples were taken, and TNF levels measured in the two groups by ELISA.

As for Glatiramer acetate [Copaxone], the “TNF secretion in vitro” value in the experiment on TNF secretion was “down-regulate TNF secretion in vitro”.
cyclo(-DF-S-Σ-R-DF-S-Σ-R-): the TNF concentration amounted to 1494.53 pg/mL in experiment [1] (peptide 3.125 ug/ml, LPS alone 1780.09); 1346.20 pg/mL in experiment [1] (peptide 6.25 ug/ml); 1037.31 pg/mL in experiment [1] (peptide 12.5 ug/ml); 621.75 pg/mL in experiment [1] (peptide 25.0 ug/ml); 613.70 pg/mL in experiment [1] (peptide 50.0 ug/ml); 2161.8 pg/mL in experiment [2] (peptide 2 ug/ml, cyclodextrin:peptide 1.25 by weight). Besides, the TNF concentration was 2314.2 pg/mL in experiment [2] (peptide 2 ug/ml, cyclodextrin:peptide 2.5 by weight); 2177.2 pg/mL in experiment [2] (peptide 2 ug/ml, cyclodextrin:peptide 5 by weight); 2278.3 pg/mL in experiment [2] (peptide 2 ug/ml, cyclodextrin:peptide 10 by weight); 2223.9 pg/mL in experiment [2] (peptide 2 ug/ml, cyclodextrin:peptide 20 by weight); 2450.2 pg/mL in experiment [2] (peptide 2 ug/ml, cyclodextrin:peptide 40 by weight, LPS 0.625 ug/ml, no peptide 2519.3); 1599.9 pg/mL in experiment [2] (peptide 4 ug/ml, cyclodextrin:peptide 1.25 by weight). The TNF concentration came to 1538.7 pg/mL in experiment [2] (peptide 4 ug/ml, cyclodextrin:peptide 2.5 by weight); 1477.5 pg/mL in experiment [2] (peptide 4 ug/ml, cyclodextrin:peptide 5 by weight); 1474.8 pg/mL in experiment [2] (peptide 4 ug/ml, cyclodextrin:peptide 10 by weight); 1488.1 pg/mL in experiment [2] (peptide 4 ug/ml, cyclodextrin:peptide 20 by weight); 1646.5 pg/mL in experiment [2] (peptide 4 ug/ml, cyclodextrin:peptide 40 by weight); 1130.9 pg/mL in experiment [2] (peptide 8 ug/ml, cyclodextrin:peptide 1.25 by weight). The TNF concentration was 1105.7 pg/mL in experiment [2] (peptide 8 ug/ml, cyclodextrin:peptide 2.5 by weight); 1140.6 pg/mL in experiment [2] (peptide 8 ug/ml, cyclodextrin:peptide 5 by weight); 1218.7 pg/mL in experiment [2] (peptide 8 ug/ml, cyclodextrin:peptide 10 by weight); 1298.4 pg/mL in experiment [2] (peptide 8 ug/ml, cyclodextrin:peptide 20 by weight); 1276.9 pg/mL in experiment [2] (peptide 8 ug/ml, cyclodextrin:peptide 40 by weight). Also, the “inhibition of TNF secretion” value in experiment [2] (in words, down to 2 ug/ml in the well, cyclodextrin from 40:1 wt:wt downwards) is “significant inhibition”. The “Concentration of TNF” value in experiment [3] was determined as 865.4 pg/mL. Moreover, the “TNF (blood)” value in the experiment on TNF (1 mg peptide i.p. in transcutol/cyclodextrin, 1 mg LPS one hour later, blood 150 minutes later, vehicle 10717) stood at 2370 pg/mL. In addition, the “reduction of TNF production versus vehicle” value in the experiment with TNF (1 mg peptide i.p., LPS stimulus) is listed as “greater than 75%”.
